Experimental data as given in patent US20130266557A1, “METHODS FOR TREATMENT OF A SARCOMA USING AN EPIMETABOLIC SHIFTER (COENZYME Q10)” (priority 2009, published 2013).

What was measured:
NCIES0808 cells [1] = experiment: Real-time PCR, Human Angiogenesis Arrays; format: cell-based; conditions: 100 uM Q10
Protocol: (§1) NCIES0808 cells were plated in T25 flasks at a density of 2×10^6 cells per flask in media or media containing 50 uM/100 uM Q10. All treatment groups were run in triplicate. Cells were harvested at 0, 3, 6, 24 or 48 hours. Pictures were taken to examine cell morphology before harvesting. To harvest cells, media was removed but saved to be able to collect floating apoptotic cells. Cells were trypsinized with 1 ml of trypsin-EDTA and the enzyme action was stopped by addition of 4 ml complete media. Trypsinized cells were added to the appropriate tube containing the media with dead cells. Cells were centrifuged at 1200 rpm for 5 minutes and media was aspirated leaving behind the cell pellet for RNA extraction. RNA isolation from cell pellets was carried out with the RNeasy kit (Qiagen, Valencia Calif.) according to the manufacturer's instructions. RNA samples were eluted from spin columns in water; absorbance was measured at 260 nm, 230 nm and 280 nm. The purity of RNA was evaluated by the 260/230 and 280/230 ratios. The concentration of RNA in all of the samples was calculated from absorbance values at […]. First strand cDNA was synthesized from 0.5 ug of all RNA samples using instructions provided with the First strand kit (SABiosciences, Frederick, Md.). The synthesized first strand from a sample was dispensed equally in a PCR array plate containing primers within a pathway (Angiogenesis, Diabetes and Mitochondria) (SABiosciences Corporation, Frederick, Md.). The arrays were amplified with real time PCR using the SYBR green detection methods using manufacturer approved protocols. The ct values from each of the samples were normalized to three housekeeping genes and fold regulation of Q10 treated groups was compared to time matched controls from cells grown in regular media was calculated.
The experiments described in this example were performed to test the overall hypothesis that Q10 would have an impact on expression of multiple genes in Ewing's sarcoma cells. The mRNA from NCIES0808 cells treated with 50 μM or 100 μM Q10 for various times was evaluated by RT-PCR against a panel of target proteins involved in human diabetes, human angiogenesis or human mitochondrial pathways.
Ct values obtained from a real time thermocycler were loaded onto the analysis tool on the SABiosciences website for calculation of fold regulation compared to cells with media. The genes that are included in the tables below are those that show a p value of close to 0.05.

NCIES0808 cells [2] = experiment: Real-time PCR, Human Mitochondrial arrays; format: cell-based; conditions: CoQ10 doses and time points examined (50/100 uM; 3-48 hours)
Protocol: as §1, with “First strand cDNA was synthesized from 0.5 ug of all RNA samples using instructions provided with the First strand kit (SABiosciences, Frederick, Md.). The synthesized first strand from a sample was dispensed equally in a PCR array plate containing primers within a pathway (Angiogenesis, Diabetes and Mitochondria) (SABiosciences Corporation, Frederick, Md.). The arrays were amplified with real time PCR using the SYBR green detection methods using manufacturer approved protocols.” left out, “calculated. […]” for “calculated.”

NCI-ES-0808 cells = experiment: Cell morphology by microscopy; format: cell-based, human
Protocol: as §1, with “RNA isolation from cell pellets was carried out with the RNeasy kit (Qiagen, Valencia Calif.) according to the manufacturer's instructions.” left out, “First strand cDNA was synthesized from 0.5 ug of all RNA samples using instructions provided with the First strand kit (SABiosciences, Frederick, Md.). The synthesized first strand from a sample was dispensed equally in a PCR array plate containing primers within a pathway (Angiogenesis, Diabetes and Mitochondria) (SABiosciences Corporation, Frederick, Md.). The arrays were amplified with real time PCR using the SYBR green detection methods using manufacturer approved protocols.” left out
The morphology of NCI-ES-0808 cells was monitored following treatment with CoQ10. […]

Ewing JDT cell line = experiment: Protein expression in Ewing JDT cell line; format: cell-based
[3] = tested on: cancer cell lines (SK-MEL-28, SK-MEL-2, SCC, PaCa2, HEP-G2) and control keratinocytes and melanocytes; experiment: Sensitivity and apoptotic response of a cell line panel (Example 1); format: cell-based; conditions: various levels of Coenzyme Q10
Protocol: In a first set of experiments, changes to cell morphology/physiology were evaluated by examining the sensitivity and apoptotic response of cells to CoQ10. A panel of skin cell lines including a control cell lines (primary culture of keratinocytes and melanocytes) and several skin cancers cell lines (SK-MEL-28, a non-metastatic skin melanoma; SK-MEL-2, a metastatic skin melanoma; or SCC, a squamous cell carcinoma; PaCa2, a pancreatic cancer cell line; or HEP-G2, a liver cancer cell line) were treated with various levels of Coenzyme Q10.

[4] = tested on: keratinocytes and dermal fibroblasts; experiment: Proliferation and migration of normal cells; format: cell-based; conditions: including keratinocytes and dermal fibroblasts
Text: Moreover, a surprising divergent effect was observed on normal cells as compared to oncogenic cells.

melanoma cell = experiment: Bcl2 level in the presence of VEGF; format: cell-based
Text: The term “Multidimensional Intracellular Molecule (MIM)”, is an isolated version or synthetically produced version of an endogenous molecule that is naturally produced by the body and/or is present in at least one cell of a human. A MIM is capable of entering a cell and the entry into the cell includes complete or partial entry into the cell as long as the biologically active portion of the molecule wholly enters the cell. MIMs are capable of inducing a signal transduction and/or gene expression mechanism within a cell. MIMs are multidimensional because the molecules have both a therapeutic and a carrier, e.g., drug delivery, effect. MIMs also are multidimensional because the molecules act one way in a disease state and a different way in a normal state.

skin cancer cells = conditions: culture of skin cancer cells but not normal cells; cited from earlier work

With Coenzyme Q10 [CoQ10] as the substance, how does the “Pattern of regulation, ANGPTL3 mRNA” value (NCIES0808 cells [1]; 3 hours) read?
The value was “Down regulation at 3 hours with 100 uM Q10”.

And the “Pattern of regulation, CCL2 mRNA” value (NCIES0808 cells [1]; 3 hours)?
The value was “Down regulation at 3 hours with 100 uM Q10”.

And the “Pattern of regulation, CDH5 mRNA” value (NCIES0808 cells [1]; 3 hours)?
Its value is “Down regulation at 3 and 24 hours with 100 uM Q10”.

And the “Pattern of regulation, CXCL1 mRNA” value (NCIES0808 cells [1]; 3 hours)?
Its value is “Down regulation at 3 hours with 100 uM Q10”.

What about the “Pattern of regulation, CXCL3 mRNA” value (NCIES0808 cells [1]; 3 hours) of the same substance?
Its value is “Down regulation at 3 hours with 100 uM Q10”.

What about the “Pattern of regulation, LAMA5 mRNA” value (NCIES0808 cells [1]; 6 hours) of the same substance?
The value was “Up regulation at 6 hours with 100 uM Q10”.

And the “Pattern of regulation, CDH5 mRNA” value (NCIES0808 cells [1]; 24 hours)?
The value was “Down regulation at 3 and 24 hours with 100 uM Q10”.

And the “Pattern of regulation, PXLDC1 mRNA” value (NCIES0808 cells [1]; 48 hours)?
Its value is “Up regulation at 48 hours with 100 uM Q10”.

What about the “Genes modulated on Human Mitochondrial arrays” value (NCIES0808 cells [2]) of the same substance?
The value was “did not reveal any modulated genes”.

What about the “Differences in cell number or morphology (FIG. 1 legend)” value (NCI-ES-0808 cells; 3, 6, 24, 48 hours, 50 uM and 100 uM Q10) of the same substance?
Its value is “no distinct differences in either cell number or morphology”.

What about the “Differences in morphology, apoptotic cells or cell number by microscopy” value (NCI-ES-0808 cells; among treatment groups, 3 hrs and 6 hrs post treatment (FIG. 1)) of the same substance?
The value was “No differences in morphology, number of visually ascertainable apoptotic cells or cell number”.

What about the “increase in Caspase 3 expression” value (Ewing JDT cell line; 100 μM CoQ10, within one hour after exposure) of the same substance?
The value was 30%.

And the “Caspase 3 expression” value (Ewing JDT cell line; one hour after CoQ10 treatment)?
Its value is “significant increase”.

And the p53 expression (Ewing JDT cell line; one hour after treatment with CoQ10)?
The p53 expression was “significant increase”.

What about the “Apoptotic response of cancer vs control cell lines” value [3] of the same substance?
The value was “induction of apoptosis and cell death in the cancer cells only”.

What about the “Effect on normal cells” value [4] of the same substance?
The value was “increased proliferation and migration”.

What about the “Level of Bcl2” value (melanoma cell) of the same substance?
Its value is “decreased level of Bcl2”.

What about the Rate of apoptosis (skin cancer cells) of the same substance?
The Rate of apoptosis was “increase the rate of apoptosis”.
